According to patent US20240302368A1, “MIGRATION OF HUMAN PERIPHERAL LEUKOCYTES IN RESPONSE TO CHEMOTACTIC FACTORS DURING PREGNACY” (The Governors of the University of Alberta, priority 2021, published 2024):
Entries after “also recorded” stand apart in the source; their conditions may differ.

T1: IL-1 receptor (Mus musculus, UniProt P13504)
T1 construct: host or cells: pregnant mice, in vivo
T1 sequence (P13504 20-576): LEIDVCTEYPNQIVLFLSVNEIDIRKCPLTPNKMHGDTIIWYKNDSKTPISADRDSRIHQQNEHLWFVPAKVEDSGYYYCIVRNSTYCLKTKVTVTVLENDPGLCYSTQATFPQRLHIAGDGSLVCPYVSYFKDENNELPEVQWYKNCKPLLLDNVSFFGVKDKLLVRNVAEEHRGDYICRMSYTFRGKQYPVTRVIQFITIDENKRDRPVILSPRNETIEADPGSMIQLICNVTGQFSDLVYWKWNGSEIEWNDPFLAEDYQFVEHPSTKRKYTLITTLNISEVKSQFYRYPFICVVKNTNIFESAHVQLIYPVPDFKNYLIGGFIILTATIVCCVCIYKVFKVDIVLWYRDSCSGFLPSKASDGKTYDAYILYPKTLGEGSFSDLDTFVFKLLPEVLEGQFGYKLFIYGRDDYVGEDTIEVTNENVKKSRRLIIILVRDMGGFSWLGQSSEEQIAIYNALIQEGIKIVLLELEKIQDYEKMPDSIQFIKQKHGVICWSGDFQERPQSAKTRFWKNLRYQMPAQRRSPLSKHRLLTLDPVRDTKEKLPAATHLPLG

T2: IL-1 receptor (IL-1R) (Mus musculus, UniProt P13504)
T2 construct: host or cells: pregnant mice, in vivo
T2 sequence (P13504 20-576): T1 sequence (P13504 20-576)

B1: IL-1β: Interleukin (IL)-1β, mediator of infectious and sterile-inflammatory preterm birth; used to induce PTB in mice (protein, UniProt P10749 118-269, looked up)
Interleukin-1 beta: VPIRQLHYRLRDEQQKSLVLSDPYELKALHLNGQNINQQVIFSMSFVQGEPSNDKIPVALGLKGKNLYLSCVMKDGTPTLQLESVDPKQYPKKKMEKRFVFNKIEVKSKVEFESAEFPNWYISTSQAEHKPVFLGNNSGQDIIDFTMESVSS

Tests used:
[1] = test system: CD-1 mice; assay: IL-1β-induced preterm birth (PTB) and fetal death in pregnant mice; type: in vivo, mouse; conditions: for fetal death: IL-1β on GD 16 without or with rytvela, fetuses at GD 17
Source text: (§1) CD-1 mice were ordered from Charles-River Laboratories Canada (Montreal, QC, Canada) and housed by Health Sciences Laboratory Animal Services at the University of Alberta. (Edmonton, AB, Canada) on a standard diet. Six groups of mice were euthanized at GD15, 17, 18, 18.5, 19 during spontaneous labor, and post-partum (PP)-1 Four groups of mice were anesthetized under isoflurane and a 1.5 cm-tall median incision was made in the lower abdominal wall. The lower segment of the right uterine hom was exposed, IL-1β (3 μg) or vehicle (0.9% saline) was injected between two fetal membranes, and the abdominal muscle layer and skin were sutured. Rytvela (1 mgikg, Elim Biopharmaceuticals, Hayward, CA) or vehicle (0.9% saline) was injected i.p. in a total volume of 100 μL saline, the first dose of which was given 30 min prior to administration of stimuli and three doses every 12 h thereafter. Animals were monitored for the onset of preterm labor (PTL) using infrared video camera recording commencing at GD16.5. Mice were euthanized at the onset of PTL or at GD17 From all ten groups of mice, lower uteri, upper uteri, placentas, fetal membranes and cervices were collected and normalized to wet tissue weight (100 mg/mL) in Dulbecco's Modified Eagle's Medium (DMEM) F-12 (Thermo Fisher Scientific, MA, USA). These tissues were homogenized by TissueLyser II (QIAGEN, Hilden, Germany) according to the manufacturer's protocol and centrifuged at 4° C., 13,000×g for 10 min to extract total protein. Maternal whole blood was collected via cardiac puncture. Whole fetuses (n=2 per dam) were also collected.

[2] = test system: CD-1 mice; assay: Neutrophil (Ly-6G+) invasion of mouse lower uterus and fetal brain, immunohistochemistry; type: in vivo; conditions: IL-1β on GD 16 without or with rytvela; compared to sham control; p<0.05
Source text: as §1
Six cryosections (7 μm) per treatment group were prepared from snap-frozen lower uteri and fetal heads (n=2 per dam) and stained for neutrophils using a goat anti-mouse Ly-6G antibody (Invitrogen, Carlsbad, CA, USA) and a rat anti-goat secondary antibody tagged with an Alexa Fluor 488 fluorescence marker (Invitrogen). Cells were counterstained using Hoechst 33342 (Thermo Fisher Scientific) and tissue homology was confirmed with a hematoxylin and eosin stain (Thermo Fisher Scientific). Four different fields (20× optical zoom) were counted per section by two observers blinded to the specimen details. Areas containing blood vessels and leukocytes within blood vessels were excluded. The arithmetic mean was calculated for each sample between the two observers. In the fetus, we focused on leukocyte invasion of the brain because of the evidence associating maternal inflammation and adverse outcomes to the fetal brain (15, 28).

[3] = test system: peripheral mouse leukocytes; assay: Cytokine mRNA abundance in peripheral leukocytes of pregnant mice, RT-qPCR; type: in vivo; conditions: GD 17 after IL-1β on GD 16, without or with rytvela; p<0.05
Source text: (§2) CD-1 mice were ordered from Charles-River Laboratories Canada (Montreal, QC, Canada) and housed by Health Sciences Laboratory Animal Services at the University of Alberta. (Edmonton, AB, Canada) on a standard diet. Six groups of mice were euthanized at GD15, 17, 18, 18.5, 19 during spontaneous labor, and post-partum (PP)-1 Four groups of mice were anesthetized under isoflurane and a 1.5 cm-tall median incision was made in the lower abdominal wall. The lower segment of the right uterine hom was exposed, IL-1β (3 μg) or vehicle (0.9% saline) was injected between two fetal membranes, and the abdominal muscle layer and skin were sutured. […] Animals were monitored for the onset of preterm labor (PTL) using infrared video camera recording commencing at GD16.5. […]
Total RNA was extracted from mouse whole blood using the RNeasy protect animal blood system (Qiagen, Hilden, Germany) according to the manufacturer's protocol. RNA concentration were determined using a NanoDrop 1000 spectrophotometer to measure the optical density (OD) photometrically at 280 nm and 260 nm (an OD260 nm/280 nm ratio of >1.8 was considered protein-free RNA). cDNA was synthesized from 500 ng RNA using qScript cDNA SuperMix (Quanta Biosciences, MA, USA) according to the manufacturer's protocol. […]

[4] = test system: mouse leukocytes; assay: Mouse leukocyte migration assay (mLMA) with GD 18.5 lower uterus chemoattractant; type: in vivo; conditions: GD 17 after IL-1β on GD 16, without or with rytvela, p<0.05
Source text: (§3) CD-1 mice were ordered from Charles-River Laboratories Canada (Montreal, QC, Canada) and housed by Health Sciences Laboratory Animal Services at the University of Alberta. (Edmonton, AB, Canada) on a standard diet. Six groups of mice were euthanized at GD15, 17, 18, 18.5, 19 during spontaneous labor, and post-partum (PP)-1 Four groups of mice were anesthetized under isoflurane and a 1.5 cm-tall median incision was made in the lower abdominal wall. The lower segment of the right uterine hom was exposed, IL-1β (3 μg) or vehicle (0.9% saline) was injected between two fetal membranes, and the abdominal muscle layer and skin were sutured. Rytvela (1 mgikg, Elim Biopharmaceuticals, Hayward, CA) or vehicle (0.9% saline) was injected i.p. in a total volume of 100 μL saline, the first dose of which was given 30 min prior to administration of stimuli and three doses every 12 h thereafter. Animals were monitored for the onset of preterm labor (PTL) using infrared video camera recording commencing at GD16.5. […]
(§4) Total leukocytes were isolated from whole blood using HetaSep (Stemcell Technologies Canada Inc., BC. Canada) according to the manufacturer's protocol. […] Fluorescence in each well was measured using a Fluoroskan Ascent (Thermo Fisher Scientific), and the number of chemoattracted leukocytes was calculated using 4 parameter logistic regression.

[5] = target: T1, IL-1 receptor; conditions: LPS-treated mice; cited from earlier work
[6] = target: T2, IL-1 receptor (IL-1R); conditions: PTB induced by IL-1β, LTA or LPS; cited from earlier work
[7] = mouse; cited from earlier work
[8] = test system: mouse lower uterus; assay: KC and MIP-2 protein in mouse lower uterus extracts, multiplex; type: in vivo; conditions: IL-1β on GD 16, lower uterus at GD 17
Source text: as §2
Mouse lower uterus tissue was suspended in DMEM-F12 medium (Thermo Fisher Scientific Inc., Ottawa, ON, Canada) at 100 mg wet tissue weight/mL and homogenized by TissueLyser II (Qiagen, Hilden, Germany) according to the manufacturer's instructions. […] Keratinocyte chemoattractant (KC) and macrophage inflammatory protein (MIP)-2 levels were measured by Bio-Plex Multiplex Immunoassay kit (Bio-Rad Laboratories, Hercules, CA, USA) according to the manufacturer's instructions.

[9] = test system: mouse lower uterus; assay: Mouse lower uterine chemoattractant assessed by leukocyte migration assay (LMA); type: in vivo; conditions: IL-1β on GD 16, chemoattractant on GD 17
Source text: as §3
as §4, with “regression. […]” for “regression.”

[10] = test system: hFM explants; assay: hFM explants treated with IL-1β; conditioned medium tested in LMA; type: cell-based, human
Method: Leukocyte migration assay (LMA). The LMA was carried out with the Modified Boyden chemotaxis chambers (AP48; Neuro Probe, Gaithersburg, MD, USA) as we published (19). The chamber is divided into the upper and lower berths. Twenty-five microliters of fetal membrane extracts were placed in the lower chamber of each well. DMEM, as a negative control, was placed in the lower chamber. A polycarbonate membrane with 3 μm pores (Neuro Probe, Gaithersburg. MD, USA) was next placed over the lower chamber, followed by a rubber gasket. Then 100,000 isolated leukocytes from whole blood of pregnant women were placed in the upper chamber of each well. The chambers were incubated for 90 min at 37′C in a humidified air incubator containing 5% CO2. After incubation, migrated leukocytes were removed from the lower chamber and put into 5 mL BD Falcon™ polystyrene round bottom tubes (Thermo Fischer Scientific K.K., Yokohama, Japan). Three hundred microliters of OptiLyse (Beckman Coulter, Beckman Coulter, Inc., Brea, CA, USA) were added to lyse RBCs, and the sample was vortexed immediately for 1 sec. The tube was incubated for 15 min at room temperature (20-25° C.) while protected from light. […] 1×PBS was added to each tube. […] The lower chamber samples were then kept covered in a 4′C cold room until quantification using flow cytometry (BD FACS Verse, BD Biosciences, Tokyo, Japan). […]

[11] = test system: TL leukocytes; assay: TL leukocytes incubated with hFM conditioned medium -/+ IL-1β; double conditioned medium as chemoattractant in LMA; type: cell-based, human; conditions: TL leukocytes treated with IL-1β plus hFM explant conditioned medium; fresh TL leukocytes migrate
Method: Leukocyte migration assay (LMA). The LMA for FIGS. 6 and 7 was performed as described above with the exception that 200,000 leukocytes were placed into the upper chamber. The LMA for FIGS. 3, 5 and FIG. 10 was performed using non-commercial, 3D printed Boyden chambers that produced nearly identical results to our published work with commercial Boyden chambers with the exception that the cutoff for predicting delivery within 7 days was 4575 cells (see FIG. 10 for more information).
Leukocyte Incubation with hFM Conditioned Medium. Conditioned medium from hFM explants was prepared as described previously (23). TL leukocytes were incubated with this single conditioned medium for 1 h at 37° C. and gentle agitation using a stir bar to prevent clumping. The supernatant was isolated via density centrifugation and used as the chemoattractant in an LMA to assess the further contribution of the leukocytes to the conditioned medium. This is referred to as ‘double conditioned medium.’ The pelleted TL leukocytes were resuspended in RPMI, and their responsiveness to GCF was assessed using an LMA.

Molecule	PTB (in words) ([1]; FIG. 11A, n=5-7 per group)	fetal death [1]	fetal death ([1]; listed as Rytvela)	PTB rate ([1]; rytvela co-administered with IL-1β (GD 16)) [%]	neutrophil density in fetal brain [2]	neutrophil density in lower (maternal) uterus [2]	leukocyte mRNA abundance of IL-1β, IL-6, TNF-α and CCL2 [3]	mouse leukocyte migration [4]	neutrophil infiltration (invasion) of fetal membranes [5]	PTB [6]	transfer from mother to fetus [7]	PTB rate ([1]; IL-1β administered on GD 16, PTB on GD 17) [%]	KC protein in lower uterus [8]	MIP-2 protein in lower uterus [8]	lower uterine chemoattractant [9]	chemoattractant release from hFM explants ([10]; TNL and TL hFM explants -/+ IL-1β, TL leukocytes in LMA)	TNL leukocyte sensitivity to migration after hFM explant conditioned medium ([10]; hFM explants pretreated with IL-1β 6 h, TNL leukocytes incubated 1 h, TL chemoattractant)	leukocyte chemoattractant release [11]
rytvela	inhibited	normal GD 17 fetuses	prevented fetal death	0	blocked the increase in neutrophil density	blocked the increase in neutrophil density	blocked	blocked	blocked	blocked	does not transfer from mother to fetus	–	–	–	–	–	–	–
B1	–	increased fetal death; also recorded: undergoing resorption	–	–	increased detection of Ly-6G+ neutrophils	increased detection of Ly-6G+ neutrophils	–	increased leukocyte migration	–	–	–	86	stimulated increases	stimulated increases	did not stimulate an increase	did not promote more chemoattractant release	had no effect	greater leukocyte chemoattractant release
